Patent US20260015350A1, “AZAQUINAZOLINE PAN-KRAS INHIBITORS” (Mirati Therapeutics, Inc., priority 2022, published 2026)

Tests used:
[1] = molecular target: T1, KRas^G12V (Homo sapiens, UniProt P01116, G12V); assay: KRas binding assay (TR-FRET tracer displacement), KRas G12V
T1 construct: Biotinylated KRas (corresponding to amino acids 1-169, produced at Accelegan Inc.); biotin (biotinylated); purchased Accelegan Inc

[2] = molecular target: T2, KRas^G12A (Homo sapiens, UniProt P01116, G12A); assay: KRas binding assay (TR-FRET tracer displacement), KRas G12A; conditions: single point, 10 nM compound, TR-FRET
T2 construct: Biotinylated KRas (corresponding to amino acids 1-169, produced at Accelegan Inc.); biotin (biotinylated); purchased Accelegan Inc

[3] = test system: KRas-mediated phosphorylation of ERK in A549 cells; assay: Inhibition of KRas-mediated phosphorylation of ERK (Cisbio HTRF pERK), A549 cells; format: cell-based; conditions: Homo sapiens; for inhibition at 0.1 µM: A549, 3 h, single point, 100 nM compound, 3 hrs
Summary of the method: (§1)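 6,000 cells/well; cpd 10 uM top, 3-fold x10, 0.8% DMSO final; 3 hr incubation; Min ctrl Trametinib 0.2 uM; lysis 40 min 4° C shaking; d2 + Cryptate Ab mix, 2 hr RT; HTRF read.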

[4] = molecular target: T3, KRas^G12S (Homo sapiens, UniProt P01116, G12S); assay: KRas binding assay (TR-FRET tracer displacement), KRas G12S; conditions: single point, 10 nM compound, TR-FRET
T3 construct: Biotinylated KRas (corresponding to amino acids 1-169, produced at Accelegan Inc.); biotin (biotinylated); purchased Accelegan Inc

[5] = molecular target: T4, KRas^Q61H (Homo sapiens, UniProt P01116, Q61H); assay: KRas binding assay (TR-FRET tracer displacement), KRas Q61H; conditions: single point, 10 nM compound, TR-FRET
T4 construct: Biotinylated KRas (corresponding to amino acids 1-169, produced at Accelegan Inc.); biotin (biotinylated); purchased Accelegan Inc

[6] = test system: KRas-mediated phosphorylation of ERK in AsPC-1 cells; assay: Inhibition of KRas-mediated phosphorylation of ERK (Cisbio HTRF pERK), AsPC-1 cells; format: cell-based; conditions: Homo sapiens, ASPC1, AsPC-1 cells; HTRF pERK
Summary of the method: (§2)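 Compound treatment lasts 3 hrs on 6,000 seeded cells, testing 10 doses from a 10 uM top concentration in 3-fold decrements at 0.8% final DMSO. Trametinib at 0.2 uM defines the Min signal. Detection is HTRF on cold-lysed cell extracts.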

[7] = test system: KRas-mediated phosphorylation of ERK in H358 cells; assay: Inhibition of KRas-mediated phosphorylation of ERK (Cisbio HTRF pERK), H358 cells; format: cell-based; conditions: Homo sapiens; for inhibition at 0.1 µM: NCI-H358, 3 h, single point, 100 nM compound, 3 hrs
Summary of the method: as §2

[8] = test system: KRas-mediated phosphorylation of ERK in H460 cells; assay: Inhibition of KRas-mediated phosphorylation of ERK (Cisbio HTRF pERK), H460 cells; format: cell-based; conditions: Homo sapiens; for IC50: NCI-H460, HTRF pERK
Summary of the method: as §2

[9] = test system: KRas-mediated phosphorylation of ERK in PSN1 cells; assay: Inhibition of KRas-mediated phosphorylation of ERK (Cisbio HTRF pERK), PSN1 cells; format: cell-based; conditions: Homo sapiens
Summary of the method: (§3)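 Seeding density was 6,000 cells/well; medium RPMI, 10% FBS. Read-out by homogeneous time-resolved fluorescence (pERK) after 4 hours covered at room temperature.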

[10] = test system: KRas-mediated phosphorylation of ERK in MKN1 cells; assay: Inhibition of KRas-mediated phosphorylation of ERK (Cisbio HTRF pERK), MKN1 cells; format: cell-based; conditions: Homo sapiens, MKN-1
Summary of the method: as §3

[11] = molecular target: T5, KRas^G12D (Homo sapiens, UniProt P01116, G12D); assay: KRas binding assay (TR-FRET tracer displacement), KRas G12D
T5 construct: Biotinylated KRas (corresponding to amino acids 1-169, produced at Accelegan Inc.); biotin (biotinylated); purchased Accelegan Inc

[12] = molecular target: T6, KRas^WT (Homo sapiens, UniProt P01116); assay: KRas binding assay (TR-FRET tracer displacement), KRas WT; conditions: single point, 10 nM compound, TR-FRET
T6 construct: Biotinylated KRas (corresponding to amino acids 1-169, produced at Accelegan Inc.); biotin (biotinylated); purchased Accelegan Inc

[13] = test system: KRas-mediated phosphorylation of ERK in H727 cells; assay: Inhibition of KRas-mediated phosphorylation of ERK (Cisbio HTRF pERK), H727 cells; format: cell-based; conditions: Homo sapiens, NCI-H727, H727 cells; HTRF pERK
Summary of the method: as §2

[14] = molecular target: T7, KRas^G12R (Homo sapiens, UniProt P01116, G12R); assay: KRas binding assay (TR-FRET tracer displacement), KRas G12R
T7 construct: Biotinylated KRas (corresponding to amino acids 1-169, produced at Accelegan Inc.); biotin (biotinylated); purchased Accelegan Inc

[15] = molecular target: T8, KRas^G12C (Homo sapiens, UniProt P01116, G12C); assay: KRas binding assay (TR-FRET tracer displacement), KRas G12C; conditions: single point, 10 nM compound, TR-FRET
T8 construct: Biotinylated KRas (corresponding to amino acids 1-169, produced at Accelegan Inc.); biotin (biotinylated); purchased Accelegan Inc

[16] = molecular target: T9, KRas^G13D (Homo sapiens, UniProt P01116, G13D); assay: KRas binding assay (TR-FRET tracer displacement), KRas G13D; conditions: single point, 10 nM compound, TR-FRET
T9 construct: Biotinylated KRas (corresponding to amino acids 1-169, produced at Accelegan Inc.); biotin (biotinylated); purchased Accelegan Inc

[17] = test system: KRas-mediated phosphorylation of ERK in HCT116 cells; assay: Inhibition of KRas-mediated phosphorylation of ERK (Cisbio HTRF pERK), HCT116 cells; format: cell-based; conditions: Homo sapiens
Summary of the method: as §1

T3 sequence (P01116 1-169 isoform P01116-2 G12S): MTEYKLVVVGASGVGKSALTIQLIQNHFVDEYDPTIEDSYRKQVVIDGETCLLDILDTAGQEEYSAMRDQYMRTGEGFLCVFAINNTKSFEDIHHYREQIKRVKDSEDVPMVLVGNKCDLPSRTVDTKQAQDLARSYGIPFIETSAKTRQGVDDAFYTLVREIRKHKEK
T9 sequence (P01116 1-169 isoform P01116-2 G13D): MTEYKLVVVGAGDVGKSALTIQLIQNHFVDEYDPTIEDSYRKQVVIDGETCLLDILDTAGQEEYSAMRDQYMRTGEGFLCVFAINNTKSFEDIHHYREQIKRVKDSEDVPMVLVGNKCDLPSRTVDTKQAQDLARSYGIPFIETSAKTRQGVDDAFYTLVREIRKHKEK
T8 sequence (P01116 1-169 isoform P01116-2 G12C): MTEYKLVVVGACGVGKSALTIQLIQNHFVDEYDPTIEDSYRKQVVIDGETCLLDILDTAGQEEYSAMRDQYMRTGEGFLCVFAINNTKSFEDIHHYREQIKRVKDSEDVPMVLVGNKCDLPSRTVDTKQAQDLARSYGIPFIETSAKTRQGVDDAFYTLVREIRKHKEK
T7 sequence (P01116 1-169 isoform P01116-2 G12R): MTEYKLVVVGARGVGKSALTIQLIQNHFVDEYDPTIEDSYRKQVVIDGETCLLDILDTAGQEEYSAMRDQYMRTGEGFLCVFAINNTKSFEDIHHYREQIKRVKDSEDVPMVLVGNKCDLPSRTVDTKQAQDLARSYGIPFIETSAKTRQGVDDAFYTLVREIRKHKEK
T1 sequence (P01116 1-169 isoform P01116-2 G12V): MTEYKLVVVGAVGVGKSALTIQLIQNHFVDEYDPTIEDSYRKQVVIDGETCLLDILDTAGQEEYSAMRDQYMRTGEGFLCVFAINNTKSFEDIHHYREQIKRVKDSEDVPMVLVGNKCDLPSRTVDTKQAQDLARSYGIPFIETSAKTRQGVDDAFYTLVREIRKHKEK
T4 sequence (P01116 1-169 isoform P01116-2 Q61H): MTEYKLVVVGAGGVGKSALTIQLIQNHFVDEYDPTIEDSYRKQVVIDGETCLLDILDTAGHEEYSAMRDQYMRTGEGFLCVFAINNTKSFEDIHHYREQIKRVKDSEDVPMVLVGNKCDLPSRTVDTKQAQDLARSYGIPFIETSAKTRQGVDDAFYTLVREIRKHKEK
T6 sequence (P01116 1-169 isoform P01116-2): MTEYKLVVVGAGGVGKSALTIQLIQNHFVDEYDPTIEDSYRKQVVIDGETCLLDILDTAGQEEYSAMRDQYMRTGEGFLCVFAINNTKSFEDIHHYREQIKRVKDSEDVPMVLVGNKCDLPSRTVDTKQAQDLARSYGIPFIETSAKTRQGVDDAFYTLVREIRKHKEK
T2 sequence (P01116 1-169 isoform P01116-2 G12A): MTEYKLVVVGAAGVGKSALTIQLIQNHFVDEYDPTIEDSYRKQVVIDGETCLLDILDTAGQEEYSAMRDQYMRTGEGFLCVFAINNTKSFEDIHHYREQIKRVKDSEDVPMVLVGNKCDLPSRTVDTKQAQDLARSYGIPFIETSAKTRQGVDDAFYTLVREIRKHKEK
T5 sequence (P01116 1-169 isoform P01116-2 G12D): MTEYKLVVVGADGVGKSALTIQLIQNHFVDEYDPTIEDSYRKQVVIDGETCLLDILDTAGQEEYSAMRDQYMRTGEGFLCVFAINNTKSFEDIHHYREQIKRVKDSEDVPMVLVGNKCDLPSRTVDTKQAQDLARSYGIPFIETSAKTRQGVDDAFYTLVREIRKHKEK

Row | IC50 [1] | inhibition at 0.01 µM [2] | inhibition at 0.01 µM [4] | inhibition at 0.01 µM [5] | IC50 [6] | IC50 [8] | IC50 [9] | IC50 [10] | IC50 [11] | inhibition at 0.01 µM [12] | IC50 [13] | IC50 [14] | inhibition at 0.01 µM [15] | inhibition at 0.01 µM [16] | Structure (SMILES) | inhibition at 0.1 µM [3] | inhibition at 0.1 µM [7] | other results
1 | 7 nM | 49% | 58% | 70% | 49 nM | 51 nM | 7520 nM | 16 nM | 4 nM | 68% | 263 nM | 10 nM | 56% | 76% | CCc1c(F)ccc2cc(O)cc(-c3ncc4c(N5CCCCC(C#N)C5)nc(OC[C@@]56CCCN5C[C@H](F)C6)nc4c3F)c12 (stereo partly drawn) [Example 547, 1-(7-(8-ethyl-7-fluoro-3-hydroxynaphthalen-1-yl)-8-fluoro-2-(((2R,7aS)-2-fluorohexahydro-1H-pyrrolizin-7a-yl)methoxy)pyrido[4,3-d]pyrimidin-4-yl)azepane-3-carbonitrile] | 33% | 20% | 
2 |  | 83% | 93% | 96% | 412 nM | 348 nM | 1320 nM | 4 nM |  | 91% | 948 nM |  | 97% | 96% | CCc1c(F)ccc2cc(O)cc(-c3ncc4c(N5CCC[C@@]6(CCO6)C5)nc(OCC5(CN(C)C)CC5)nc4c3F)c12 [Example 700, (R)-4-(2-((1-((dimethylamino)methyl)cyclopropyl)methoxy)-8-fluoro-4-(1-oxa-6-azaspiro[3.5]nonan-6-yl)pyrido[4,3-d]pyrimidin-7-yl)-5-ethyl-6-fluoronaphthalen-2-ol] | 83% | 103% | IC50 ([3]; HTRF pERK): 468 nM; IC50 ([7]; NCI-H358, HTRF pERK): 209 nM; inhibition at 0.1 µM ([8]; NCI-H460, 3 h, single point, 100 nM compound, 3 hrs): 96%; inhibition at 0.1 µM ([17]; HCT-116, 3 h, single point, 100 nM compound, 3 hrs): 86%; IC50 ([17]; HCT-116, HTRF pERK): 784 nM
3 | < 2 nM | 88% | 90% | 90% | 15 nM | 22 nM | 2710 nM | 12 nM | 2 nM | 86% | 30 nM | < 2 nM | 94% | 90% | CCc1c(F)ccc2cc(O)cc(-c3ncc4c(N5CCC[C@]6(C5)C[C@H](O)C6)nc(OC[C@@]56CCCN5[C@H](COC(=O)N(C)C)CC6)nc4c3F)c12 [Example 712, ((3S,7aS)-7a-(((7-(8-ethyl-7-fluoro-3-hydroxynaphthalen-1-yl)-8-fluoro-4-((2R,4r)-2-hydroxy-6-azaspiro[3.5]nonan-6-yl)pyrido[4,3-d]pyrimidin-2-yl)oxy)methyl)hexahydro-1H-pyrrolizin-3-yl)methyl dimethylcarbamate] | 52% | 95% | 
4 | 2 nM | 74% | 76% | 69% | 73 nM | 102 nM | 3580 nM | 22 nM | 3 nM | 66% | 59 nM | 4 nM | 81% | 67% | CCc1c(F)ccc2cc(O)cc(-c3ncc4c(N5CCC[C@]6(C5)C[C@@H](O)C6)nc(OC[C@@]56CCCN5[C@H](COC(=O)N(C)C)CC6)nc4c3F)c12 [Example 713, ((3S,7aS)-7a-(((7-(8-ethyl-7-fluoro-3-hydroxynaphthalen-1-yl)-8-fluoro-4-((2S,4s)-2-hydroxy-6-azaspiro[3.5]nonan-6-yl)pyrido[4,3-d]pyrimidin-2-yl)oxy)methyl)hexahydro-1H-pyrrolizin-3-yl)methyl dimethylcarbamate] | 25% | 60% | 
